Reference: patent US10329542B2, “HBV RNAse H purification and enzyme inhibitors” (Saint Louis University, priority 2012, dated 2019)

Assays:
HBV genotype H RNAseH = test: Oligonucleotide-directed RNAseH cleavage assay, HBV genotype H; type: biochemical, Hepatitis B virus; details: for Inhibition of HBV genotype H RNAseH / Residual activity at 10 uM, Genotype H: 10 μM; for Inhibition of HBV genotype H RNAseH: below threshold of irrelevant controls; for Residual activity at 10 uM, Genotype H: ± standard deviation, 3 to 7 replicates
Protocol: (§1) For the oligonucleotide-directed RNAseH cleavage assay (Gong et al., 2001), 6 μl protein extract (typical protein concentration 2.8 mg/ml) was mixed with 0.5 μg internally ^32P-labeled DRF+ RNA (nucleotides 2401-2605 of the duck HBV genome plus 60 nucleotides of flanking sequences from pBluescript) and 3 μg oligonucleotide D2507- or its corresponding negative control D2526+ on ice in 20 μl under the conditions in Table 1. Some reactions in FIG. 5 employed oligonucleotide D2543M-Sal or its D2453+ negative control as indicated. The reactions were incubated at 42° C. for 90 min. and terminated by addition of Laemmli protein loading buffer and boiling. The samples were resolved by 12% SDS-PAGE, the gels were stained with Coomassie blue to monitor protein loading, and labeled RNA was detected by autoradiography. Candidate inhibitors were dissolved in DMSO and added at the indicated concentrations during assembly of the reactions. Control reactions lacking the compounds contained DMSO as a vehicle control. The RNAseH autoradiograms were scanned and quantified with ImageJ. The oligonucleotides were: D2526+([…]; SEQ ID NO:8), D2507-([…]; SEQ ID NO:9), D2453+([…]; SEQ ID NO:10), and D2543M-Sal ([…]; SEQ ID NO:11).
Oligonucleotide-directed RNAseH cleavage assays (Gong et al., 2001) were performed as described (Tavis et al., 2013). Briefly, HBV RNAseH extracts were mixed with a 264 nt-long internally ^32P-labeled RNA plus an excess of a complementary DNA oligonucleotide or its inverse-complement as a negative control in a final concentration of 65 mM Tris pH 8.0, 190 mM NaCl, 5 mM MgCl2, 5 mM dTT, 0.05% NP40, and 6% glycerol. βTJ was dissolved in DMSO and added at the indicated concentrations; the final concentration of DMSO in all reactions was 1%. The reactions were incubated at 42° C. for 90 min. and terminated by addition of Laemmli protein electrophoresis buffer. The samples were resolved by SDS-PAGE, labeled RNA was detected by autoradiography, the autoradiograms were scanned, and the RNA cleavage products were quantified with ImageJ (National Institutes of Health). IC50 values were calculated by non-linear regression using GraphPad Prism (GraphPad Software, Inc.).

[1] = target: T1, chimeric HBV:HIV RNAseH HHC1 (Hepatitis B virus genotype D subtype ayw, UniProt P03156, DELINS787-795[…]/INS679M); test: Oligonucleotide-directed RNAseH cleavage assay, chimeric HHC1; type: biochemical; details: 10 μM; ± standard deviation, 3 to 7 replicates
T1 construct: HHC1 is an HRHPL derivative; made in house; host or cells: E. coli BL21 codon+
T1 sequence (P03156 680-786, added parts left off, stated change not applied): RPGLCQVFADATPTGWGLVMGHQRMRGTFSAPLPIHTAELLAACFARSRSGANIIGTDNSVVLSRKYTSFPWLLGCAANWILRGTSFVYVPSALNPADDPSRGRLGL
Text: pCMV-HBV-LE-(CMV-HBV) is an HBV over-length genomic expression vector containing 1.2 copies of the HBV(adw2) genome (Genbank X02763.1) downstream of the CMV promoter cloned into pBS (Promega). Surface protein expression from this vector is ablated by mutating the preS and S open reading frames. pCMV-HBV(genotype D) is an analogous HBV genomic expression construct and was a gift from Dr. Shuping Tong (Brown University). For bacterial expression, codon-optimized cDNA sequences for HRHPL (genotypes A, B, C, D, and H), and noncodon-optimized sequences for HHC1 and HHC2 were cloned by gene synthesis (Genscript) between the NcoI and EcoRI sites into pTrcHis2B (Invitrogen) with a C-terminal hexahistidine tag. HRHPL contains HBV genotype D (Genbank V01460) polymerase residues 684-845. HHC1 is an HRHPL derivative in which HBV polymerase residues 800-808 were replaced with HIV residues corresponding to the RNAseH helix D ([…]; SEQ ID NO:6). HHC2 is an HRHPL derivative in which HBV polymerase residues 800-845 were replaced with HIV residues corresponding to the RNAseH helix D to the C-terminus ([…]; SEQ ID NO:7). The human RNAseH1 gene (NP_002927.2) was cloned with an N-terminal hexahistidine-tag between the BamHI and XhoI sites of pRsetB (Invitrogen) by gene synthesis.
as §1

HBV = HBV genomic replication assays (Table 2); type: cell-based, Hepatitis B virus; details: class by active concentration
Outline: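 Huh7 cells transfected with HBV plasmid received compound at 10 or 50 μM, refreshed every 1-2 days. Core-particle DNA isolated 4-5 days post-transfection was analysed by Southern blot, with or without RNaseH. For the screen, replicating cells got 60, 20 or 6.7 μM, refreshed days 1-2, and plus-strand DNA was quantified on day 3 by cross-gap TaqMan PCR.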

HBV genotype C RNAseH = test: Oligonucleotide-directed RNAseH cleavage assay, HBV genotype C; type: biochemical, Hepatitis B virus; details: class by concentration giving inhibition (10, 20, 60 μM)
Protocol: as §1
Incremental improvements were developed in extraction of the HBV RNAseH from the bacterial cell pellets since the data were generated for Examples 1 and 2. Key among these was shifting from using a cup sonicator to a probe sonicator and reducing the duration of the sonication period from 3×60 second bursts to 3×20 second bursts. When the […] genotype C clone that had inconsistent activity under the old extraction conditions (FIG. 6C) was isolated under these conditions, it became consistently and robustly active (FIG. 16).

| SMILES | Inhibition of HBV genotype H RNAseH (HBV genotype H RNAseH) | Residual activity at 10 uM, Genotype H (HBV genotype H RNAseH) | Residual activity at 10 uM, HHC1 [1] | Activity vs. HBV Genomic Replication (HBV) | Activity vs. HBV Biochemical vs. gtC (HBV genotype C RNAseH) | IC50 (HBV genotype H RNAseH; read-out: IC50 against HBV genotype H RNAseH) |
| --- | --- | --- | --- | --- | --- | --- |
| COc1ccc2ccccc2c1C=NNC(=O)c1cc(O)c(O)c(O)c1 [Compound 14] | inhibited | 27 ± 13 Percent DMSO control | 72 ± 2 Percent DMSO control | − (− no activity at 60 μM) |  |  |
| Cc1cc(=O)oc2cc(O)c(O)cc12 [Compound 34] | inhibited | 33 ± 12 Percent DMSO control | 39 ± 4 Percent DMSO control | − (− no activity at 60 μM) | +++ (+++ inhibition at 10 μM) |  |
| COc1cc2c(cc1Cc1cccc(Cl)c1F)c(=O)c(C(=O)O)cn2[C@H](CO)C(C)C [Compound 10, Elvitegravir, reference compound] |  | 66 ± 21 Percent DMSO control |  | − (− no activity at 60 μM) | ++ (++ inhibition at 20 μM) |  |
| Cc1nnc(C(=O)NC(C)(C)c2nc(C(=O)NCc3ccc(F)cc3)c(O)c(=O)n2C)o1 [Compound 11, Raltegravir, reference compound] |  | 63 ± 21 Percent DMSO control |  | − (− no activity at 60 μM) | ++ (++ inhibition at 20 μM) |  |
| CCOc1ccc(-c2c3cc(O)c(=O)cc-3oc3cc(O)c(O)cc23)cc1 [Compound 30] |  | 37 ± 8 Percent DMSO control | 58 ± 12 Percent DMSO control | + (+, activity detectable at >10 μM) | ++ (++ inhibition at 20 μM) |  |
| CC(C)c1ccc(O)c(=O)c(O)c1 [Compound 46, beta-thujaplicinol] |  |  |  | ++ (++, clear activity at <10 μM) | +++ (+++ inhibition at 10 μM) | 2300 ± 1700 nM |
| NCc1ccc(-c2ccc(Cc3cc(=O)n(O)c4ncccc34)cc2)cc1 [Compound 12, napthyridinone] | inhibited | 17 ± 6 Percent DMSO control | 32 ± 8 Percent DMSO control | ++ (++, clear activity at <10 μM) | +++ (+++ inhibition at 10 μM) |  |
| [N-]=[N+]=NCc1cccc(C(=O)CC(=O)C(=O)O)c1 [Compound 40] | inhibited | 22 ± 2 Percent DMSO control | 44 ± 10 Percent DMSO control | − (− no activity at 60 μM) |  |  |
| Cc1c2cc(O)c(=O)cc-2oc2cc(O)c(O)cc12 [Compound 8] |  | 74 ± 21 Percent DMSO control | 55 ± 18 Percent DMSO control | − (− no activity at 60 μM) |  |  |
